Key:
[1] = system: isolated rat thoracic aorta; experiment: Vascular relaxing effect in potassium chloride (20 mM KCl) contracted isolated rat thoracic aorta; set-up: species or system rat (male SPRD); settings: for IC50: Rattus norvegicus, 20 mM KCl contracted strips, 37° C., read-out: IC50 (vascular relaxation in isolated rat thoracic aorta)
Protocol: 1. Measurement of Vascular Relaxing Effect in Potassium Chloride Contracted Isolated rat Thoracic Aorta
Experiments were performed in thoracic aortas obtained from male SPRD rats weighing 250 to 300 g. Thoracic aortas excised from rats killed by decapitation and ensanguination were cleaned of fat and connective tissue, then were immediately placed in carbogenized TYRODE solution. The composition of the normal TYRODE solution was the following (in mM): NaCl 114.7, KCl 3.7, CaCl2 3.6, MgCl2 0.49, NaHCO3 19.9, NaH2 PO4 0.32, glucose 5.1.
Two mm wide and 20 to 25 mm long strips were cut from the aortas along a helical line at 45° angle. Aortic strips were mounted vertically between two cotton threads in 10 ml organ chambers, the lower threads were attached to the organ chambers and the upper threads were connected to isometric force transducers. The strips were incubated under 1 g resting tension at 37° C. for 120 minutes, then resting vascular tone was recorded. Then the strips were contracted with a TYRODE solution containing 20 mM KCl. The composition of the high potassium TYRODE solution was the following (in mM): NaCl 94.7, KCl 20, CaCl2 3.6, MgCl2 0.49, NaHCO3 19.9, NaH2 PO4 0.32, glucose 5.1.
When stable vascular tone developed, increasing doses of the test substance were added to the organ bath. The effects of each test substance were measured at least in 3 tissue preparations obtained from different animals. Decreases in vascular tension caused by the test substances were expressed as percentage changes and IC50 for each tissue preparation was determined by sigmoid (in few casses linear) curve fitting.
For comparison, cromakalim i.e. (±)-trans-3,4-dihydro-3-hydroxy-2,2-dimethyl-4-(2-oxo-1-pyrrolidinyl)-2H-1-benzopyrane-6-carbonitrile was used.

[2] = system: isolated guinea-pig papillary muscle; experiment: Effective refractory period (ERP) prolonging effect in isolated guinea-pig right ventricular papillary muscle, in vitro; set-up: species or system guinea-pig (male); settings: for ERP change at 10^-4 M / ERP change at 10^-5 M: 30 minutes incubation, mean of at least four preparations
Text: 2. Measurement of Effective Refracter Period in Guinea-pig Right Ventricular Papillary Muscle, in Vitro.
Effective refracter period (ERP) is regarded to be the shortest time interval between two identical electrical stimuli when both can evoke a twitch in the papillary muscle. A second stimulus applied earlier than the ERP is not effective. Compounds prolonging ERP can have antiarrhythmic effect. This method is useful primarily for testing antiarrhythmic agents belonging to class III according to the Vaughan Williams classification /Bexton, R. S. and Camm. A., J. Pharmacol. Ther., 17, 315 (1982)/.
Experiments were performed in a Schuler-type organ bath system having 4 channels. Male guinea-pigs weighing 450 to 750 g were killed by a blow on the head and ensanguinated. The heart was rapidly excised and papillary muscles of appropriate size (lower than 1 mm in diameter) were dissected from the right ventricle. The preparations were vertically mounted in 20 ml organ chambers containing Krebs solution bubbled with carbogen (consisting of 95% of O2 and 5% of CO2) and maintained at 35° C. The upper end of the muscles was connected with cotton threads to force-displacement transducers coupled to a recorder for measuring isometric tension via DC-bridge amplifiers. The lower end of the papillary muscles was pinned to the organ chamber with a silver hook that was also used as a stimulating electrode. The other electrode was immersed into the organ bath and had no direct contact with the preparation. The composition of the Krebs solution was the following (in mm): NaCl 118, KCl 4.8, NaHCO3 27.2, glucose 11.1, MgSO4 1.2, KH2 PO4 1, CaCl2 2.6, pH=7.4.
The preparations were equilibrated for 120 minutes under a resting tension of 1 g. During equilibration they were electrically stimulated at a rate of 2 Hz with 1 msec rectangular pulses that were above the diastolic threshold voltage by 10%. ERP was determined using a standard extrastimulus technique. Extrastimuli (S2) were interjected between the normal stimuli (S1) in such a way that the S1 -S2 interval was initially below the refracter period of the tissue. The S1 -S2 interval was then widened by increments of 1 msec until the extrastimulus (S2) evoked twitch of the papillary muscle. The force of the twitch caused by S2 is larger than those caused by normal (S1) stimuli (postextrasystolic potentiation). The equipment measured the shortest S1 -S2 interval at which the extrastimulus evoked a twitch that was larger than the force of control twitches by 25%. This interval is equivalent with the ERP.
The experimental protocol was as follows:
Two control ERP measurements were performed 20 minutes apart, then appropriate amount of the test substance was added to produce 10^-4 M concentration in the bathing solution. After 30 minutes incubation with the test substance, two ERP measurements were performed 30 minutes apart.
When the test substance increased ERP at 10^-4 M by 40 msec or more, its effect on ERP was tested also at 10^-5 M.
The effect of the test substances was characterized by the difference between the first treated and the second control measurements. Individual data obtained from four different preparations, at least, were averaged. The reference substance used was sotalol i.e. N-[4-/1-hydroxy-2-(1-methylethylamino)ethyl/plenyl]methane sulfonamide.

| SMILES | IC50 [1] | vascular relaxation of isolated rat thoracic aorta (in words) [1] | ERP prolongation (in words) [2] | ERP change at 10^-4 M [2] | ERP change at 10^-5 M [2] |
| --- | --- | --- | --- | --- | --- |
| CC1(C)Oc2ccc(C#N)cc2[C@@H](N2CCCC2=O)[C@@H]1O (racemic) [cromakalim, (±)-trans-3,4-dihydro-3-hydroxy-2,2-dimethyl-4-(2-oxo-1-pyrrolidinyl)-2H-1-benzopyrane-6-carbonitrile, reference compound] | 130 nM |  |  |  |  |
| CN(C)CCCOc1ccccc1-c1nnc(-n2nc(N(C)C)nc2N)s1 [Example 29, 2-(5-Amino-3-dimethylamino-1H-1,2,4-triazole-1-yl)-5-/ 2-(3-dimethylaminopropoxy)phenyl/-1,3,4-thiadiazole] | 71 nM | relaxed isolated rat thoracic aorta more effectively than the K^+ channel opener and Ca^2+ channel blocker reference substances |  |  |  |
| CC(C)Sc1nc(N)n(-c2nnc(-c3ccccc3OCCCN(C)C)s2)n1 [Example 30, 2-/5-Amino-3-(2-methylethylthio)-1H-1,2,4-triazole-1-yl/-5-/ 2-(3-dimethylaminopropoxy)phenyl/-1,3,4-thiadiazole] | 68 nM | relaxed isolated rat thoracic aorta more effectively than the K^+ channel opener and Ca^2+ channel blocker reference substances |  |  |  |
| CN(C)CCCOc1ccccc1-c1nnc(-n2nc(N3CCCCC3)nc2N)s1 [Example 32, 2-(5-Amino-3-piperidino-1H-1,2,4-triazole-1-yl)-5-/ 2-(3-dimethylaminopropoxy)phenyl/-1,3,4-thiadiazole] |  |  | remarkable also at 10^-5 M | 155 msec | 158 msec |
| CCN(CC)CCOc1ccc(-c2nnc(-n3nc(SC)nc3N)s2)cc1 [Example 36, 2-(5-Amino-3-methylthio-1H-1,2,4-triazole-1-yl)-5-/ 4-(2-diethylaminoethoxy)phenyl/-1,3,4-thiadiazole] |  |  |  | 53 msec | 15 msec |
| CSc1nc(N)n(-c2nnc(-c3ccccc3OCCCN3CCCC3)s2)n1 [Example 43, 2-(5-Amino-3-methylthio-1H-1,2,4-triazole-1-yl)-5-/ 2-(3-pyrrolidinopropoxy)phenyl/-1,3,4-thiadiazole] |  |  |  | 66 msec | 34 msec |
| CN(C)CCCOc1ccc(-c2nnc(-n3nc(N4CCN(C)CC4)nc3N)s2)cc1 [Example 47, 2-/5-Amino-3-(4-methylpiperazine-1-yl)-1H-1,2,4-triazole-1-yl/-5-/ 4-(3-dimethylaminopropoxy)phenyl/-1,3,4-thiadiazole] |  |  |  | 123 msec | 2 msec |
| C=CCN(CC=C)c1nc(N)n(-c2nnc(-c3ccccc3OCCCN(C)C)s2)n1 [Example 49, 2-(5-Amino-3-diallylamino-1H-1,2,4-triazole-1-yl)-5-/ 2-(3-dimethylaminopropoxy)phenyl/-1,3,4-thiadiazole] | 170 nM |  |  |  |  |
| COc1ccc(CCN(C)CCCOc2ccccc2-c2nnc(-n3nc(N4CCCCC4)nc3N)s2)cc1OC [Example 99, 2-(5-Amino-3-piperidino-1H-1,2,4-triazole-1-yl)-5-{2-[3-methyl-3-/ 2-(3,4-dimethoxyphenylethyl)amino/-propoxy]phenyl}-1,3,4-thiadiazole] | 130 nM |  |  |  |  |
| CC(C)NCC(O)c1ccc(NS(C)(=O)=O)cc1 (stereo not drawn) [sotalol, N-[4-/1-hydroxy-2-(1-methylethylamino)ethyl/plenyl]methane sulfonamide, reference compound] |  |  |  | 47 msec | 26 msec |

— patent US6191152A, “2-(1,2,4-triazole-1-yl)-1,3,4-thiadiazole derivatives having an effect on the C.N.S. and the heart” (EGIS Gyogyszergyar Rt., priority 1997, dated 2001)
